Laboratory results published in ChEMBL document CHEMBL5291721, “A preclinical secondary pharmacology resource illuminates target-adverse drug reaction associations of marketed drugs” (Nat Commun, 2023).
“And” between values parts separate entries of the source, which are not always exact repeats. Equal values may be shown once.

What was measured:
[1] = target: T1, Alpha-1A adrenergic receptor (Homo sapiens, UniProt P35348); type: functional, cell-based
T1 sequence (P35348 whole entry): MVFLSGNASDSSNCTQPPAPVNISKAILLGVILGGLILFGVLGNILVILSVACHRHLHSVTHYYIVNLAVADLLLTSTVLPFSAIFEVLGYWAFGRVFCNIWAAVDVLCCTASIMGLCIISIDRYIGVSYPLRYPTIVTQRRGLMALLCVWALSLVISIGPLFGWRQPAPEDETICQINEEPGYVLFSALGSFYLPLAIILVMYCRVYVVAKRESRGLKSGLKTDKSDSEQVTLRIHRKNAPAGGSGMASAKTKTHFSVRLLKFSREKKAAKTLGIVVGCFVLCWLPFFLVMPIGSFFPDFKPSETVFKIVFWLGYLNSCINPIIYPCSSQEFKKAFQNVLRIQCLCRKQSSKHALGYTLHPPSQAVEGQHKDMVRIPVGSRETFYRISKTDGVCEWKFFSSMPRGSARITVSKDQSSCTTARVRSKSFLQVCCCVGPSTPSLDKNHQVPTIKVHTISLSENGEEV

[2] = target: T1, Alpha-1A adrenergic receptor
[3] = target: Beta-2 adrenergic receptor (Homo sapiens, UniProt P07550)
Beta-2 adrenergic receptor, sequence (P07550 whole entry): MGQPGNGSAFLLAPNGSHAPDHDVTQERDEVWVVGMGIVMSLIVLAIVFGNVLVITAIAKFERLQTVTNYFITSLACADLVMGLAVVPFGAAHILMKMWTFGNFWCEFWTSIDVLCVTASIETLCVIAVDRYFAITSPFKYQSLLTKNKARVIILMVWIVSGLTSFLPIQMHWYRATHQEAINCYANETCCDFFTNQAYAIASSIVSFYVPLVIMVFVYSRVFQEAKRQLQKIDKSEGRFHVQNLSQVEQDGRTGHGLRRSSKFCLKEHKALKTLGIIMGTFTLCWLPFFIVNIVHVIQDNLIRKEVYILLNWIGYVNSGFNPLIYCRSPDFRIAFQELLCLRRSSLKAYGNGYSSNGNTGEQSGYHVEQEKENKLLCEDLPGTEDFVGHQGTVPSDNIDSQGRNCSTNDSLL

[4] = target: T2, Muscarinic acetylcholine receptor M1 (Homo sapiens, UniProt P11229); type: functional
T2 sequence (P11229 whole entry): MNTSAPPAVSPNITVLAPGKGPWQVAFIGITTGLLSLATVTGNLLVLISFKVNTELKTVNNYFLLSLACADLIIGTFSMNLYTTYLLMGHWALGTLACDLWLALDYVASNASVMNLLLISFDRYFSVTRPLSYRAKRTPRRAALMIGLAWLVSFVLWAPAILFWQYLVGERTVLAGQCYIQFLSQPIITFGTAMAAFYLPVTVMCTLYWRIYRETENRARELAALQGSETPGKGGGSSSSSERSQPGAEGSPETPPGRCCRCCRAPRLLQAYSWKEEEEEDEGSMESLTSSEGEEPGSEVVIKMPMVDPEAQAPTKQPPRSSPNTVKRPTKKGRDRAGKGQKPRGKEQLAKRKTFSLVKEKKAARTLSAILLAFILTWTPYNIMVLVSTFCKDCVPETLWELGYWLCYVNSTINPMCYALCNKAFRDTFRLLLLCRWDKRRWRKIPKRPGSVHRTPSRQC

[5] = target: Cannabinoid receptor 1 (Homo sapiens, UniProt P21554); type: functional, cell-based
Cannabinoid receptor 1, sequence (P21554 whole entry): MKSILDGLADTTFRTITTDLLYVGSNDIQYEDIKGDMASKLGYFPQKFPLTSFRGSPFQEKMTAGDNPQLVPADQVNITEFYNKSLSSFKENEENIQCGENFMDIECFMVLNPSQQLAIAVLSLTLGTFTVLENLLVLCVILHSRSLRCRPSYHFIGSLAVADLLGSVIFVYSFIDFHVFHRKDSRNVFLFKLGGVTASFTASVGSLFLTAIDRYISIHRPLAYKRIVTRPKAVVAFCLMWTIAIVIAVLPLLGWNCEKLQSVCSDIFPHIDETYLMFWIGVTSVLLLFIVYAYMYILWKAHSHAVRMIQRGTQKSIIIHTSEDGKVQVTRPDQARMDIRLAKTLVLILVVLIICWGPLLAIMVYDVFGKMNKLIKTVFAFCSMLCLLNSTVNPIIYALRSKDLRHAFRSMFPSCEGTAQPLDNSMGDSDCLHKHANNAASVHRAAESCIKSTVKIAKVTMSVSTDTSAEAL

[6] = target: Kappa-type opioid receptor (Homo sapiens, UniProt P41145)
Kappa-type opioid receptor, sequence (P41145 whole entry): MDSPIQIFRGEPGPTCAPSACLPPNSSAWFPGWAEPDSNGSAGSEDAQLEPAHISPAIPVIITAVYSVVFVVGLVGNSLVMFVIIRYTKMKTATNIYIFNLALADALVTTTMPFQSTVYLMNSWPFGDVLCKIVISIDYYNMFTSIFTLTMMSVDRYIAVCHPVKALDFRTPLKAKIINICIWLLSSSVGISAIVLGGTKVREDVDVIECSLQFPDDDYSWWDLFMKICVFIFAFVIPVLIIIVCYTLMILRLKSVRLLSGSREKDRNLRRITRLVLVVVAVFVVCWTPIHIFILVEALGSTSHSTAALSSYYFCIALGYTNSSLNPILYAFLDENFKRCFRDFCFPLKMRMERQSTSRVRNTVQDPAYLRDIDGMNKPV

[7] = target: T3, Thromboxane A2 receptor (Homo sapiens, UniProt P21731)
T3 sequence (P21731 whole entry): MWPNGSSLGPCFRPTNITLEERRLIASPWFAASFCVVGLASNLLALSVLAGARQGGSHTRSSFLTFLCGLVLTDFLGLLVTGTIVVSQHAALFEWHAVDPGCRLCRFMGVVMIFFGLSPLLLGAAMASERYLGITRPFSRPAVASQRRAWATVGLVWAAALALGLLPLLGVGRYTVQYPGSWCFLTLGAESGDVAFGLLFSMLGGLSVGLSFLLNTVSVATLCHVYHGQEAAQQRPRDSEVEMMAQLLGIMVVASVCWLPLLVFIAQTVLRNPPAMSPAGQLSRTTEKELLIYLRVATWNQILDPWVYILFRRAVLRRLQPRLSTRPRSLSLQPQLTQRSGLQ

[8] = target: T4, Histamine H3 receptor (Homo sapiens, UniProt Q9Y5N1)
T4 sequence (Q9Y5N1 whole entry): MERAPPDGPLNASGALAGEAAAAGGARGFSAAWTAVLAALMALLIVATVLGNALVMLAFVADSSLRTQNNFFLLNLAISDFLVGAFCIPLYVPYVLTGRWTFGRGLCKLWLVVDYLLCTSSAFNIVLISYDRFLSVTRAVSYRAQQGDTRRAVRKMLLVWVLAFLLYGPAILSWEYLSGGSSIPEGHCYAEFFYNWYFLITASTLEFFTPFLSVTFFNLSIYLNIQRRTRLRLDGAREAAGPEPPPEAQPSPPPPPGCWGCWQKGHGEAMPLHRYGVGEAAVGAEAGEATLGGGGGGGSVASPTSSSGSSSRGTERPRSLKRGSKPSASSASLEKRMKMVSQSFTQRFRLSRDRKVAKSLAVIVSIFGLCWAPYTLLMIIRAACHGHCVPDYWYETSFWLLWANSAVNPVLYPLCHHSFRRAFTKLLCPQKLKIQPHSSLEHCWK

[9] = target: T5, Alpha-2B adrenergic receptor (Homo sapiens, UniProt P18089)
T5 sequence (P18089 whole entry): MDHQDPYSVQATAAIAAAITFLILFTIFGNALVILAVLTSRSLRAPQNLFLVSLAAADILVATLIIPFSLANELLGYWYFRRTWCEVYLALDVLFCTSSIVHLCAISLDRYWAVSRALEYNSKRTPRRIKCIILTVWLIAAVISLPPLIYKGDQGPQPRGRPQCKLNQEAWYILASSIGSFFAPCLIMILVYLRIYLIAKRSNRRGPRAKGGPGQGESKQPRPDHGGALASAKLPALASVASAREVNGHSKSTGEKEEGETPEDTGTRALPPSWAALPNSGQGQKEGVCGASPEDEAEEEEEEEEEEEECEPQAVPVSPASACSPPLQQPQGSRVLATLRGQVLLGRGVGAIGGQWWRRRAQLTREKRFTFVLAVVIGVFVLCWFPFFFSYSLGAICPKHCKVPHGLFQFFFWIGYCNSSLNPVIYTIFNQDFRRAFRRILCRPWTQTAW

[10] = target: T6, Alpha-2A adrenergic receptor (Homo sapiens, UniProt P08913)
T6 sequence (P08913 whole entry): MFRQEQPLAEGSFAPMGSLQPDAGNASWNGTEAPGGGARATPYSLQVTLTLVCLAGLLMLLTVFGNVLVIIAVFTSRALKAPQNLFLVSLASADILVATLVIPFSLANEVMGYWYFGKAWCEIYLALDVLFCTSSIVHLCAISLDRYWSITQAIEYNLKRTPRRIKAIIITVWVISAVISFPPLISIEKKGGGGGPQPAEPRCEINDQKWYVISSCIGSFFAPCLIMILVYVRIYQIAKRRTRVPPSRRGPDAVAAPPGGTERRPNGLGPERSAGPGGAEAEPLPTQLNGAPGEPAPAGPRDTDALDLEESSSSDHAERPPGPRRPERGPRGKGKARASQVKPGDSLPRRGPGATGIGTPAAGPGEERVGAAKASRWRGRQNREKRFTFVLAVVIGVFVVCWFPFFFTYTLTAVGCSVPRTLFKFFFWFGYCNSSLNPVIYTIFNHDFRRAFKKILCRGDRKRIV

[11] = target: T4, Histamine H3 receptor; remark: listed apart in the source
[12] = target: D(1A) dopamine receptor (Homo sapiens, UniProt P21728)
D(1A) dopamine receptor, sequence (P21728 whole entry): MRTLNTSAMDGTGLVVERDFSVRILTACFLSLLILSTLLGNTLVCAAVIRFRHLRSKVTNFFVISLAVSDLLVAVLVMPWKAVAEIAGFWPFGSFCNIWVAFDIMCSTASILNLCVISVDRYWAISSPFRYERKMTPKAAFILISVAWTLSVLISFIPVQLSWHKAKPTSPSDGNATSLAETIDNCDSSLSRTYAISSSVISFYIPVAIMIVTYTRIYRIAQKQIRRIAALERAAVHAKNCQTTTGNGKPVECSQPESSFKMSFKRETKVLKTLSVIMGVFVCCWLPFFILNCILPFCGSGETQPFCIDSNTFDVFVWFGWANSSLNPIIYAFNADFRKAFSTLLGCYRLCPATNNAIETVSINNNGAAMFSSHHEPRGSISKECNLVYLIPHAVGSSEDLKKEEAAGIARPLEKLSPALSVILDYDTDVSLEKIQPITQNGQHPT

[13] = target: T3, Thromboxane A2 receptor; type: functional, cell-based
Further: assay procedure not described here.

Row | Compound | AC50 [1] [µM] | AC50 [2] [µM] | AC50 [3] [µM] | AC50 [4] [µM] | AC50 [5] [µM] | AC50 [6] [µM] | AC50 [7] [µM] | AC50 [8] | AC50 [9] [µM] | AC50 [10] [µM] | AC50 [11] [µM] | AC50 [12] [nM] | AC50 [13] [µM]
1 | CO/N=C(\C(=O)N[C@@H]1C(=O)N2C(C(=O)[O-])=C(C[N+]3(C)CCCC3)CS[C@H]12)c1csc(N)n1 | > 300 | > 30 | > 30 | > 300 | > 300 | > 30 | > 30 | > 30 µM and 97 µM | – | – | – | – | –
2 | COC(=O)N[C@H](C(=O)N1CCC[C@H]1c1nc(-c2ccc(-c3ccc(-c4c[nH]c([C@@H]5CCCN5C(=O)[C@@H](NC(=O)OC)C(C)C)n4)cc3)cc2)c[nH]1)C(C)C | > 30 | – | > 30 | > 30 | – | 4.1 | > 30 | > 30 µM | > 30 | – | – | – | –
3 | CC(=O)c1ccc2c(c1)N(CCCN1CCN(CCO)CC1)c1ccccc1S2 [ACETOPHENAZINE] | > 30 | – | – | > 30 | > 30 | – | – | 21 µM | 0.056 | – | – | – | –
4 | N[C@@H](C(=O)N[C@@H]1C(=O)N2C(C(=O)O)=C(Cl)CS[C@H]12)c1ccccc1 [CEFACLOR ANHYDROUS] | > 30 | – | – | > 30 | > 30 | > 30 | – | > 30 µM | > 30 | – | – | – | –
5 | CN(C)CCCN1c2ccccc2CCc2ccc(Cl)cc21 [CLOMIPRAMINE] | > 30 | 0.0445 | – | – | – | – | – | 3.8 µM | – | 3.63 | > 30 | – | –
6 | COc1ccc2c(c1)C(=O)N(CCc1ccc(S(=O)(=O)NC(=O)NC3CCCCC3)cc1)C(=O)C2(C)C [GLIQUIDONE] | > 30 | – | > 30 | > 30 | – | > 30 | 11 | > 30 µM | > 30 | – | – | – | –
7 | CC(C)Cc1ccc(CC(=O)O)cc1 [IBUFENAC] | > 30 | – | – | > 30 | > 30 | – | – | > 30 µM | > 30 | – | – | – | –
8 | NC(=O)c1ncn([C@@H]2O[C@H](CO)[C@@H](O)[C@H]2O)c1O [MIZORIBINE] | > 30 | – | – | > 30 | > 30 | > 30 | – | > 30 µM | > 30 | – | – | – | –
9 | OCCN1CCN(CCCN2c3ccccc3C=Cc3ccccc32)CC1 [OPIPRAMOL] | > 30 | – | – | > 30 | > 30 | > 30 | – | > 30 µM | 10 | 9.6 | 19 | 1290 | > 30
10 | CC[C@H](C)C(=O)O[C@H]1C[C@H](O)C=C2C=C[C@H](C)[C@H](CC[C@@H](O)C[C@@H](O)CC(=O)O)[C@H]21 [PRAVASTATIN] | > 30 | > 10 | > 10 | – | > 30 | > 10 | – | > 30 µM | – | – | – | – | –
11 | O=C(NC[C@H]1CN(c2ccc(N3CCOCC3=O)cc2)C(=O)O1)c1ccc(Cl)s1 [RIVAROXABAN] | > 30 | – | – | > 30 | – | > 30 | – | – | > 30 | > 30 | > 30 | > 30000 | > 3
12 | CNC(=O)c1cc(Oc2ccc(NC(=O)Nc3ccc(Cl)c(C(F)(F)F)c3)cc2)ccn1 [SORAFENIB] | > 30 | > 10 | > 30 | > 30 | > 30 | 23 | 16.3 | > 30 µM | > 30 | – | – | – | –
13 | CCCS(=O)(=O)Nc1ccc(F)c(C(=O)c2c[nH]c3ncc(-c4ccc(Cl)cc4)cc23)c1F [VEMURAFENIB] | > 30 | – | > 30 | > 30 | > 30 | > 30 | > 30 | > 30 µM | > 30 | – | – | – | –
14 | OCc1cc([C@@H](O)CNCCCCCCOCCOCc2c(Cl)cccc2Cl)ccc1O [VILANTEROL] | 1.1 | – | – | > 30 | > 30 | – | – | > 30 µM | > 30 | – | – | – | –
